Values quoted from earlier work as cited in patent publication US20120294937A1, “NEW PHARMACEUTICAL DOSAGE FORM FOR THE TREATMENT OF GASTRIC ACID-RELATED DISORDERS” (NOVARTIS AG, priority 2009, published 2012).

Test system: stomach acid pH

NC(N)=Nc1nc(CSCCC(N)=NS(N)(=O)=O)cs1 [famotidine]
time stomach acid controlled at pH>4 (Day 1, clinical setting): 54 % of the day
percentage of time controlling stomach acid (Day 8, steady state for omeprazole reached, clinical setting): 48 % of the day
